Source: US20210395256A1, “TYROSINE KINASE INHIBITORS, COMPOSITIONS AND METHODS THERE OF” (Betta Pharmaceuticals Co., Ltd., priority 2018, published 2021)
Read-outs that look alike come from different tables or passages of the source.

Key:
Ba/F3-ETV6-NTRK3 = target: T1, Ba/F3-ETV6-NTRK3 (Homo sapiens, UniProt Q16288); assay: Ba/F3-ETV6-NTRK3 cells proliferation assay; assay type: cell-based; details: 72 h, CellTiter Glo
T1 construct: Ba/F3 cells with TPM3-NTRK1 or ETV6-NTRK3 fusion mutation gene stably overexpressed named Ba/F3-TPM3-NTRK1 and Ba/F3-ETV6-NTRK3; fused on or other part: P41212 (Transcription factor ETV6)
T1 sequence (Q16288 whole entry, the tested form may be a part): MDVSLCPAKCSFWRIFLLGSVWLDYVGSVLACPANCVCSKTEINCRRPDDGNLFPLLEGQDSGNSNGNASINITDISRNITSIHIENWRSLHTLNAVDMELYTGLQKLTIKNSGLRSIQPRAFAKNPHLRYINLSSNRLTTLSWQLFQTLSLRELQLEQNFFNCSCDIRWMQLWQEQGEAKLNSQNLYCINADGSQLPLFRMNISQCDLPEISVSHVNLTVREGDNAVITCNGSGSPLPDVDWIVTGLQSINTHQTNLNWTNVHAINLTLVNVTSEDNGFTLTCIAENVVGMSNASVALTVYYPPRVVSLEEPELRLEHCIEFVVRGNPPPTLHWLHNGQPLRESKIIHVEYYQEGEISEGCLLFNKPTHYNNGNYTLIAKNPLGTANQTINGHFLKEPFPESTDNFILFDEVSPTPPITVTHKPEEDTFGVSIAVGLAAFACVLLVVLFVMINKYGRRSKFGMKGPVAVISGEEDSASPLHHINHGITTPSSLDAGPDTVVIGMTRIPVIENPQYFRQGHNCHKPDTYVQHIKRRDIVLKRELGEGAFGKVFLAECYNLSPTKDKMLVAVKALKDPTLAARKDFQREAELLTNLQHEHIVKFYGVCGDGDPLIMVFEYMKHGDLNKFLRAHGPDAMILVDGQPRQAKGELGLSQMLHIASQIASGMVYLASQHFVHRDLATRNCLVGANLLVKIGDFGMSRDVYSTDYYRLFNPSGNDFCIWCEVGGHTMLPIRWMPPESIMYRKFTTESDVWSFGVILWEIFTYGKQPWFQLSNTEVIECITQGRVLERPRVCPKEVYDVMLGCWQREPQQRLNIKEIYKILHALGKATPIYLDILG
Description: (§1) Example 202 Ba/F3-TPM3-NTRK1 and Ba/F3-ETV6-NTRK3 cells proliferation assay
(§2) Cell line: Ba/F3 cells with TPM3-NTRK1 or ETV6-NTRK3 fusion mutation gene stably overexpressed named Ba/F3-TPM3-NTRK1 and Ba/F3-ETV6-NTRK3.
(§3) RPMI 1640 and 10% FBS and 1% PS and 2 ug/mL puromycin.
(§4) b) Collect cell to a 15 mL centrifuged tube, centrifuge at 1000 rpm for 5 min. Discard the supernatant, count, and make the cell density at 1.49×10^4 cells/mL, then place it in a 37° C., 5% CO2 incubator.
(§5) a) The test compound (20 mM stock solution) was diluted to 60 μM with 100% DMSO as starting concentration then 3-fold serial diluted with “9+0” concentrations. in a 96-well dilution plate (Thermo, Cat. No. 249944);
(§6) b) The above compound solution was diluted 1:20 times with culture medium to prepare a 10 fold working solution;
(§7) a) Take cells in log phase growth, centrifuge at 1000 rpm for 5 min, then resuspend the cells with culture medium, then count cells;
(§8) b) Cells were seeded to 96-well cell culture plate with density at 2000 cells/well;
(§9) a) Compounds prepared at step 2 were added to cell plate with 15 μL per well, the final concentrations were 300, 100, 33.33, 11.11, 3.70, 1.23, 0.41, 0.14, 0.05 and 0 nM, and the final concentration of DMSO was 0.5%. The blank control well was a culture medium (0.5% DMSO);
(§10) c) The cells were incubated for an additional 72 h in the incubator.
(§11) a) Remove the 96-well cell culture plate and add 50 μl of CTG reagent (CellTiter Glo kit, promega, Cat #G7573).
(§12) b) Plate was shaked for 2 min and then let it cool for 30 min at room temperature.
(§13) c) The Luminescence signal value was read using a PerkinElmer reader.
(§14) Experimental Data Analysis
(§15) Data were analyzed using GraphPad Prism 6.0 software to obtain a fitted curve of compound activity.
(§16) Fit the Compound IC50 from non-linear regression equation:
(§17) Y=Bottom+(Top-Bottom)/(1+10^((Log IC50-X)×HillSlope));
(§18) X: The log of the concentration of the compound; Y: Luminescence value.

Ba/F3-TPM3-NTRK1 = target: T2, Ba/F3-TPM3-NTRK1 (Homo sapiens, UniProt P04629); assay: Ba/F3-TPM3-NTRK1 cells proliferation assay; assay type: cell-based; details: 72 h, CellTiter Glo
T2 construct: expressed in transfected cells; host or cells: Ba/F3; the other entry of the earlier key: TPM3 (P06753, Tropomyosin alpha-3 chain)
T2 sequence (P04629 510-796 limits assumed): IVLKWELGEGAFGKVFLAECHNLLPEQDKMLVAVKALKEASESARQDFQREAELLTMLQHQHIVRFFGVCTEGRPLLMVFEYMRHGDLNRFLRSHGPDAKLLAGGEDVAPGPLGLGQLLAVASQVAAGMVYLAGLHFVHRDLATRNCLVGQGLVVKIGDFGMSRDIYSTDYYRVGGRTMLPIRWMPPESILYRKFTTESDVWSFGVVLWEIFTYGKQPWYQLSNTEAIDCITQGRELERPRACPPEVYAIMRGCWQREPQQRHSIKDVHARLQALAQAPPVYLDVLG
Description: as §1, §2, §3, §4, §5, §6, §7, §8, §9, §10, §11, §12, §13, §14, §15, §16, §17, §18

TrkA kinase = TrkA kinase (Homo sapiens, UniProt P04629); assay: TrkA kinase assay (mobility shift assay); assay type: biochemical; details: read-out: Trk A Kinase IC50
TrkA kinase, sequence (P04629 33-796): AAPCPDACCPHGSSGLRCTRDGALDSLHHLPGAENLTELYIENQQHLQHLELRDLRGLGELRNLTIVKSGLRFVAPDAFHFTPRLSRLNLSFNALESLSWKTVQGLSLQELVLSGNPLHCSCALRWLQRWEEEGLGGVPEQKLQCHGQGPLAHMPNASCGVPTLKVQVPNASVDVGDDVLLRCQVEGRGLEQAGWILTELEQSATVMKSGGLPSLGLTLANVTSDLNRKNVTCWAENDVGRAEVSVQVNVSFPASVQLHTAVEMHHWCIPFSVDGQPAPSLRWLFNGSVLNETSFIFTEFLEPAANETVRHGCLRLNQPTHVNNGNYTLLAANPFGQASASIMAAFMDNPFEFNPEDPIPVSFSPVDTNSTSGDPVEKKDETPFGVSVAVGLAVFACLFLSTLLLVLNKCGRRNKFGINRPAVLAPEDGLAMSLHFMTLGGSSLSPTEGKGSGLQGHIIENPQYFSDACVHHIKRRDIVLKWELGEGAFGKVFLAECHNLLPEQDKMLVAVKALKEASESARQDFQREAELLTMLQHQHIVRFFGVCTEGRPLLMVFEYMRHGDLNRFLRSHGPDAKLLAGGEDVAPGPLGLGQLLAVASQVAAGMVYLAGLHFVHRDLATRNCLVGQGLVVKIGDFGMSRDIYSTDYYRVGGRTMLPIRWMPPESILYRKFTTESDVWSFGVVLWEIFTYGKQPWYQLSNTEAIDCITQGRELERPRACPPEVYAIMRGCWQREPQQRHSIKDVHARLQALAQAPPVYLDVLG
How it was run: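 Caliper mobility-shift readout of FAM-labelled peptide conversion by TrkA in 50 mM HEPES pH 7.5, 0.0015% Brij-35, with ATP; enzyme preincubated 10 min with compound (10-point dilution), reaction at 28 °C, EDTA stop. Inhibition relative to DMSO and no-enzyme controls; IC50 by four-parameter fit.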

[1] = Liver microsomes metabolic stability assay, human; assay type: in vitro ADME; details: human liver microsomes 0.5 mg/mL, 37° C.
Description: (§19) Example 203 Liver Microsomes Metabolic Stability Assay
(§20) Pooled human liver microsomes (Cat. 452117) were purchased from Corning. Pooled male rat liver microsomes (Cat. R1000) and pooled male mouse liver microsomes (Cat. M1000) were purchased from XENOTECH. Microsomes were stored at −80° C.
(§21) 1) Make a master solution containing phosphate buffer, ultra-pure H2O and MgCl2 solution according to Table 14.
(§22) 2) Two separated experiments were performed as follows.
(§23) a) With NADPH: 10 μL of 20 mg/mL liver microsomes and 40 μL of 10 mM NADPH were added to the incubations. The final concentrations of microsomes and NADPH were 0.5 mg/mL and 1 mM, respectively.
(§24) b) Without NADPH: 10 μL of 20 mg/mL liver microsomes and 40 μL of ultra-pure H2O were added to the incubations. The final concentration of microsomes was 0.5 mg/mL.
(§25) 3) The reaction was started with the addition of 4 μL test compounds solutions or control compound solution (verapamil) at the final concentration of 2 μM and carried out at 37° C.
(§26) 4) Aliquots of 50 μL were taken from the reaction solution at 0, 15, 30, 45 and 60 min. The reaction solutions were stopped by the addition of 4 volumes of cold acetonitrile with 1S (100 nM alprazolam, 200 nM caffeine, 200 nM labetalol and 2 μM ketoprofen). Samples were centrifuged at 3,220 g for 40 minutes. Aliquot of 100 μL of the supernatant was mixed with 100 μL of ultra-pure H2O and then used for LC-MS/MS analysis. All experiments were performed in duplicate.
(§27) The slope value, k, was determined by linear regression of the natural logarithm of the remaining percentage of the parent drug vs. incubation time curve.
(§28) The in vitro half-life (in vitro t1/2) was determined from the slope value:
(§29) Conversion of the in vitro t1/2 (in min) into the in vitro intrinsic clearance (in vitro CLint, in μL/min/mg proteins) was done using the following equation (mean of duplicate determinations): […]
(§30) The control compound (verapamil) was included in the assay. Any value of the compounds that was not within the specified limits will be rejected and the experiment will be repeated.

[2] = Liver microsomes metabolic stability assay, rat; assay type: in vitro ADME; details: rat liver microsomes 0.5 mg/mL, 37° C.
Description: as §19, §20, §21, §22, §23, §24, §25, §26, §27, §28, §29, §30

[3] = Liver microsomes metabolic stability assay, mouse; assay type: in vitro ADME; details: mouse liver microsomes 0.5 mg/mL, 37° C.
Description: as §19, §20, §21, §22, §23, §24, §25, §26, §27, §28, §29, §30

## Fc1ccc(F)c([C@H]2CCCN2c2ccn3ncc(-c4nnc(-c5ccncc5)[nH]4)c3n2)c1 [Compound 8, (R)-5-(2-(2,5-difluorophenyl)pyrrolidin-1-yl)-3-(5-(pyridin-4-yl)-4H-1,2,4-triazol-3-yl)pyrazolo[1,5-a]pyrimidine]
Ba/F3-ETV6-NTRK3
  IC50: 1.55 nM

## Oc1ccc(-c2nnc(-c3cnn4ccc(N5CCC[C@@H]5c5cc(F)ccc5F)nc34)[nH]2)cc1 [Compound 9, (R)-4-(5-(5-(2-(2,5-difluorophenyl)pyrrolidin-1-yl)pyrazolo[1,5-a]pyrimidin-3-yl)-4H-1,2,4-triazol-3-yl)phenol]
Ba/F3-TPM3-NTRK1
  IC50: 2.05 nM
TrkA kinase; class symbols
  IC50: 10 to 50 nM
Ba/F3-ETV6-NTRK3
  IC50: 2.11 nM

## Fc1ccc(F)c([C@H]2CCCN2c2ccn3ncc(-c4nnc(-c5cnccn5)[nH]4)c3n2)c1 [Compound 10, (R)-5-(2-(2,5-difluorophenyl)pyrrolidin-1-yl)-3-(5-(pyrazin-2-yl)-4H-1,2,4-triazol-3-yl)pyrazolo[1,5-a]pyrimidine]
Ba/F3-TPM3-NTRK1
  IC50: 1.16 nM
TrkA kinase; class symbols
  IC50: 10 to 50 nM
Ba/F3-ETV6-NTRK3
  IC50: 1.2 nM

## COC(=O)N[C@@H](C)c1nnc(-c2cnn3ccc(N4CCC[C@@H]4c4cc(F)ccc4F)nc23)[nH]1 [Compound 12, methyl ((S)-1-(5-(5-((R)-2-(2,5-difluorophenyl)pyrrolidin-1-yl)pyrazolo[1,5-a]pyrimidin-3-yl)-4H-1,2,4-triazol-3-yl)ethyl)carbamate]
Ba/F3-TPM3-NTRK1
  IC50: 7.71 nM
TrkA kinase; class symbols
  IC50: > 50 nM
Ba/F3-ETV6-NTRK3
  IC50: 2.72 nM

## N#Cc1cccc(-c2nnc(-c3cnn4ccc(N5CCC[C@@H]5c5cc(F)ccc5F)nc34)[nH]2)c1 [Compound 13, (R)-3-(5-(5-(2-(2,5-difluorophenyl)pyrrolidin-1-yl)pyrazolo[1,5-a]pyrimidin-3-yl)-4H-1,2,4-triazol-3-yl)benzonitrile]
Ba/F3-TPM3-NTRK1
  IC50: 0.98 nM
TrkA kinase; class symbols
  IC50: ≤ 10 nM
Ba/F3-ETV6-NTRK3
  IC50: 1.83 nM

## Fc1ccc(F)c([C@H]2CCCN2c2ccn3ncc(-c4nnc(-c5ccc(C(F)(F)F)nc5)[nH]4)c3n2)c1 [Compound 14, (R)-5-(2-(2,5-difluorophenyl)pyrrolidin-1-yl)-3-(5-(6-(trifluoromethyl)pyridin-3-yl)-4H-1,2,4-triazol-3-yl)pyrazolo[1,5-a]pyrimidine]
Ba/F3-TPM3-NTRK1
  IC50: 12.5 nM
TrkA kinase; class symbols
  IC50: > 50 nM
Ba/F3-ETV6-NTRK3
  IC50: 10 nM

## CCOC(=O)c1nnc(-c2cnn3ccc(N4CCC[C@@H]4c4cc(F)ccc4F)nc23)[nH]1 [Compound 16, ethyl (R)-5-(5-(2-(2,5-difluorophenyl)pyrrolidin-1-yl)pyrazolo[1,5-a]pyrimidin-3-yl)-4H-1,2,4-triazole-3-carboxylate]
Ba/F3-TPM3-NTRK1
  IC50: 9.18 nM
TrkA kinase; class symbols
  IC50: > 50 nM
Ba/F3-ETV6-NTRK3
  IC50: 4.21 nM

## O=C(O)c1nnc(-c2cnn3ccc(N4CCC[C@@H]4c4cc(F)ccc4F)nc23)[nH]1 [Compound 17, (R)-5-(5-(2-(2,5-difluorophenyl)pyrrolidin-1-yl)pyrazolo[1,5-a]pyrimidin-3-yl)-4H-1,2,4-triazole-3-carboxylic acid]
Ba/F3-TPM3-NTRK1
  IC50: 4.1 nM
[1]; 2 μM
  t1/2 Human: ∞
[1]
  microsomal CLint at 2 μM: 0.27 µL/min/mg
[2]; male, read-out: t1/2 Rat
  half-life at 2 μM: 10.4 h
[2]; 2 μM
  CLint Rat: 0.00 μL/min/mg proteins
TrkA kinase; class symbols
  IC50: > 50 nM
Ba/F3-ETV6-NTRK3
  IC50: 3.56 nM
[3]; male
  microsomal CLint at 2 μM: 2.23 µL/min/mg
[3]; 2 μM
  t1/2 Mouse: ∞

## OC1CCC[C@H](c2nnc(-c3cnn4ccc(N5CCC[C@@H]5c5cc(F)ccc5F)nc34)[nH]2)C1 (stereo partly drawn) [Compound 18, (3S)-3-(5-(5-((R)-2-(2,5-difluorophenyl)pyrrolidin-1-yl)pyrazolo[1,5-a]pyrimidin-3-yl)-4H-1,2,4-triazol-3-yl)cyclohexan-1-ol]
Ba/F3-TPM3-NTRK1
  IC50: 3.81 nM
TrkA kinase; class symbols
  IC50: 10 to 50 nM
Ba/F3-ETV6-NTRK3
  IC50: 2.83 nM

## Fc1ccc(F)c([C@H]2CCCN2c2ccn3ncc(-c4nnc(C5CCNCC5)[nH]4)c3n2)c1 [Compound 22, (R)-5-(2-(2,5-difluorophenyl)pyrrolidin-1-yl)-3-(5-(piperidin-4-yl)-4H-1,2,4-triazol-3-yl)pyrazolo[1,5-a]pyrimidine]
Ba/F3-TPM3-NTRK1
  IC50: 2.93 nM
TrkA kinase; class symbols
  IC50: 10 to 50 nM
Ba/F3-ETV6-NTRK3
  IC50: 2.45 nM

## O=C(O)c1cc2nc(-c3cnn4ccc(N5CCC[C@@H]5c5cc(F)ccc5F)nc34)[nH]c2cc1F [Compound 141, (R)-2-(5-(2-(2,5-difluorophenyl)pyrrolidin-1-yl)pyrazolo[1,5-a]pyrimidin-3-yl)-6-fluoro-1H-benzo[d]imidazole-5-carboxylic acid]
Ba/F3-TPM3-NTRK1
  IC50: 30.1 nM
TrkA kinase; numeric values
  IC50: 0.3 nM
Ba/F3-ETV6-NTRK3
  IC50: 20.8 nM

## COC(=O)[C@@H]1CCCN1c1cc2[nH]c(-c3cnn4ccc(N5CCC[C@@H]5c5cc(F)ccc5F)nc34)nc2cc1C#N [Compound 166, methyl (5-cyano-2-(5-((R)-2-(2,5-difluorophenyl)pyrrolidin-1-yl)pyrazolo[1,5-a]pyrimidin-3-yl)-1H-benzo[d]imidazol-6-yl)-L-prolinate]
Ba/F3-TPM3-NTRK1
  IC50: 4.67 nM
TrkA kinase; numeric values
  IC50: 2.5 nM
Ba/F3-ETV6-NTRK3
  IC50: 7.73 nM

## N#Cc1cc2nc(-c3cnn4ccc(N5CCC[C@@H]5c5cc(F)ccc5F)nc34)[nH]c2cc1N1CCC[C@H]1C(=O)O [Compound 167, (5-cyano-2-(5-((R)-2-(2,5-difluorophenyl)pyrrolidin-1-yl)pyrazolo[1,5-a]pyrimidin-3-yl)-1H-benzo[d]imidazol-6-yl)-L-proline]
Ba/F3-TPM3-NTRK1
  IC50: 13.2 nM
TrkA kinase; numeric values
  IC50: 0.3 nM
Ba/F3-ETV6-NTRK3
  IC50: 19.6 nM
